Source: US6395893B1, “Crystallization of lactitol, crystalline lactitol product and use thereof” (Xyrofin Oy, priority 2000, dated 2002)
Like-named read-outs stand apart in the source and are kept apart here.

What was measured:
Type in all cases: physicochemical
[1] = Tablet hardness (Key Instruments hardness tester); settings: for Hardness / Hardness (in brackets): tablet; for Hardness: 24 hours after production; for Hardness (in brackets): analysis performed during production; for Maximum hardness: tablets over the range of compression forces
Method: (§1) The material under evaluation was mixed in a laboratory scale Turbula mixer for 2 minutes with 0.5% magnesium stearate as lubricant. The mixed sample was then tabletted on a Manesty 2C single punch press using a 15 mm diameter flat-faced bevelled edge punch. The compression force was adjusted by altering the drop of the top punch. The compression force is indicated by an arbitrary figure. The higher the number, the greater the compression. These figures can only be used as a comparison for each series of compressions. As soon as the material is changed or any of the machine settings are altered the numbers cannot be compared. The adjustment is such that it cannot be exactly reproduced, therefore, these figures should only be seen as a means of differentiating between samples and indicating either increasing or decreasing compression force. Tablet hardness was measured using a Key Instruments tablet hardness tester which measures the force required to break the tablet across its diameter. Ten tablets were tested and an average reading recorded.

[2] = Tablet friability (Key Instruments friability tester); settings: for Friability (10 tabs): tablet, percentage weight loss, dropped 100 times
Method: as §1, with “friability” for “hardness”, “friability tester.” for “tablet hardness tester which measures the force required to break the tablet across its diameter.”, “dropped 100 times” for “tested”, “the percentage weight loss” for “an average reading”, “recorded. Any tablets that are badly chipped are removed prior to weighing.” for “recorded.”

Flowability = test: Flowability
Method: (§2) Flowability: A 500 g sample was poured to a 500 ml measuring cylinder. The sample was tapped 10 times, levelled and the amount of the sample was weighed.

[3] = Particle size analysis of chocolate; settings: chocolate made with the lactitol
Method: (§3) The milk powder, microcrystalline lactitol, Litesse II (modified polydextrose), vanillin and cocoa liquor were mixed in a Stephan mixer with a portion of the cocoa butter. The mixture was passed through a three roll refiner to produce a flake. The flake was mixed again in the Stephan mixer and a farther portion of cocoa butter was added. The mix was re-refined with the pressures increased to produce a flake with an acceptable particle size.
There was an insignificant increase in the particle size of the chocolate made using microcrystalline lactitol (10-12 μm) compared to the one with lactitol monohydrate (9-10 μm).

[4] = Viscosity of chocolate on storage (Haake RV20 viscometer); settings: chocolate made with the lactitol, held at 50° C. for one week
Method: as §3
The resulting flakes were stored ready for conching. Prior to conching the flakes were pre-warmed in an oven set to 50° C. The flake was added to a conche with the temperature set to 60° C. On loading the remaining cocoa butter was added to give a final fat content of 35 %. A small amount of the lecithin was added at this stage. The sample was conched for 24 hours. The remaining lecithin was added I hour prior to the removal of the batch from the conche.
For the sake of comparison the procedure was repeated identically with another batch except that the microcrystalline lactitol was replaced by standard crystalline lactitol monohydrate (Lactitol MC, Xyrofin Oy).
The viscosity of the two samples was measured using a Haake RV20 viscometer with an RC20 rheocontroller fitted. […]

Rate of solution = settings: 100 g in 100 g of water at 20° C., paddle mixer 250 rpm
Method: Rate of solution: 100 g of the sample was put in 100 g of water at 20° C. and 40° C. A small paddle mixer, 250 rpm, was used to mix the solution. During the dissolution the refractive index was measured.

[5] = Hygroscopicity (humidity cabinet)
Method: Hygroscopicity: 10 g of the sample was weighed to a petri dish. The open dish was put into a humidity cabinet. The change in weight was measured. The humidity cabins at 25° C. and relative humidity 60% and at 40° C. and relative humidity 70% were used.

[6] = Heat of solution (calorimeter); settings: 40 g in 670 g distilled water at 25° C.
Method: Heat of solution: 40 g of the sample was dissolved in 670 g of distilled water at 25° C. The heat of solution was measured with a calorimeter operating in a constant temperature environment.

Bulk density = settings: tapped 10 times
Method: as §2

[7] = Particle size distribution by sieve analysis; settings: for Coefficient of variation: of particle size
Text: Particle size distribution: Sieve analysis was used to determine the particle size.

[8] = Water content (Karl Fischer)
Method: The water content of the microcrystalline lactitol product was analyzed by the Karl Fischer method and the melting behaviour was measured by differential scanning calorimetry (DSC).
Moisture was measured using coulometric Karl Fischer titration

[9] = compression 32.5, listed as Microcrystalline Lactitol Sample
[10] = compression 33, listed as Microcrystalline Lactitol Sample
[11] = compression 33.5, listed as Microcrystalline Lactitol Sample
[12] = compression 34, listed as Microcrystalline Lactitol Sample

SMILES: OC[C@@H](O)[C@@H](O[C@@H]1O[C@H](CO)[C@H](O)[C@H](O)[C@H]1O)[C@H](O)[C@@H](O)CO [Granulated Lactitol, lactitol]
- Hardness ([1]; compression 32.5 (arbitrary figure)): 70 N
- Hardness (in brackets) ([1]; compression 32.5): 82 N
- Hardness ([1]; compression 33 (arbitrary figure)): 139 N
- Hardness (in brackets) ([1]; compression 33): 133 N
- Hardness ([1]; compression 33.5 (arbitrary figure)): 193 N
- Hardness (in brackets) ([1]; compression 33.5): 213 N
- Hardness ([1]; compression 34 (arbitrary figure)): 240 N
- Hardness (in brackets) ([1]; compression 34): 307 N
- Maximum hardness [1]: 240 N
- Friability (10 tabs) ([2]; compression 32.5): 4.7%
- Friability (10 tabs) ([2]; compression 33): 1.79%
- Friability (10 tabs) ([2]; compression 33.5): 1.08%
- Friability (10 tabs) ([2]; compression 34): 0.34%

SMILES: OC[C@@H](O)[C@@H](O[C@@H]1O[C@H](CO)[C@H](O)[C@H](O)[C@H]1O)[C@H](O)[C@@H](O)CO [lactitol monohydrate]
- Maximum hardness ([1]; listed as crystalline lactitol monohydrate, monohydrate): < 70 N
- Flowability (Flowability; monohydrate): 23 s
- Particle size of the chocolate ([3]; monohydrate): 9-10 μm
- Viscosity change of chocolate on storage ([4]; monohydrate): considerable thickening
- Time to dissolve (Rate of solution; listed as the monohydrate, monohydrate): about 5 minutes
- Water sorption ([5]; 25° C. and 60% relative humidity, listed as the monohydrate, monohydrate): 0.02%
- Water sorption ([5]; 40° C. and 70% relative humidity, listed as the monohydrate, monohydrate): 0.04%
- Heat of solution ([6]; monohydrate): 15.6 cal/g
- Bulk density (Bulk density; monohydrate): 360 g/500 ml
- Mean particle size ([7]; monohydrate): 0.47 mm
- Sieve analysis 0 ([7]; monohydrate): 0.0
- Sieve analysis >0.100 mm ([7]; monohydrate): 0.7
- Sieve analysis >0.180 mm ([7]; monohydrate): 4.8
- Sieve analysis >0.250 mm ([7]; monohydrate): 15.1
- Sieve analysis >0.315 mm ([7]; monohydrate): 25.8
- Sieve analysis >0.450 mm ([7]; monohydrate): 20.6
- Sieve analysis >0.560 mm ([7]; monohydrate): 17.9
- Sieve analysis >0.710 mm ([7]; monohydrate): 15.2
- Coefficient of variation ([7]; monohydrate): 30
- Friability results (in words) ([2]; tablets, all compression forces): all of the tablets totally disintegrating during the test

SMILES: OC[C@@H](O)[C@@H](O[C@@H]1O[C@H](CO)[C@H](O)[C@H](O)[C@H]1O)[C@H](O)[C@@H](O)CO [microcrystalline lactitol, lactitol]
- Hardness ([1]; compression 32 (arbitrary figure)): 90 N
- Hardness (in brackets) ([1]; compression 32): 85 N
- Hardness ([1]; compression 32.5 (arbitrary figure), listed as Microcrystalline Lactitol Sample): 156 N
- Hardness (in brackets) [1, 9]: 137 N
- Hardness ([1]; compression 33 (arbitrary figure), listed as Microcrystalline Lactitol Sample): 252 N
- Hardness (in brackets) [1, 10]: 257 N
- Hardness ([1]; compression 33.5 (arbitrary figure), listed as Microcrystalline Lactitol Sample): 319 N
- Hardness (in brackets) [1, 11]: (301) N
- Hardness ([1]; compression 34 (arbitrary figure), listed as Microcrystalline Lactitol Sample): 134 N
- Hardness (in brackets) [1, 12]: (335) N
- Hardness ([1]; compression 34.5 (arbitrary figure)): 330 N
- Hardness (in brackets) ([1]; compression 34.5): (344) N
- Flowability (Flowability): 17 s
- Particle size of the chocolate [3]: 10-12 μm
- Viscosity change of chocolate on storage [4]: no significant increase in viscosity
- Time to dissolve (Rate of solution): 4 min
- Water sorption ([5]; 25° C. and 60% relative humidity): 0.05%
- Water sorption ([5]; 40° C. and 70% relative humidity): 0.11%
- Heat of solution [6]: 15.4 cal/g
- Bulk density (Bulk density): 325 g/500 ml
- Mean particle size [7]: 0.29 mm
- Sieve analysis 0 [7]: 1.6
- Sieve analysis >0.100 mm [7]: 13.0
- Sieve analysis >0.180 mm [7]: 21.1
- Sieve analysis >0.250 mm [7]: 21.6
- Sieve analysis >0.315 mm [7]: 31.5
- Sieve analysis >0.450 mm [7]: 8.3
- Sieve analysis >0.560 mm [7]: 2.3
- Sieve analysis >0.710 mm [7]: 0.6
- Coefficient of variation [7]: 39
- Water content of the product ([8]; Karl Fischer method): 3.5%
- Moisture ([8]; coulometric Karl Fischer titration): 5.1%
- Friability (10 tabs) ([2]; compression 32): 1.31%
- Friability (10 tabs) [2, 9]: 0.32%
- Friability (10 tabs) [2, 10]: 0.22%
- Friability (10 tabs) [2, 11]: 0.5%
- Friability (10 tabs) [2, 12]: 0.38%
- Friability (10 tabs) ([2]; compression 34.5): 0.69%
